Reference: ChEMBL document CHEMBL3045455, “Design, synthesis and evaluation of novel indomethacinflavonoid mutual prodrugs as safer NSAIDs” (Med Chem Res, 2011)

Assays:
[1] = tested on: Rattus norvegicus; assay: Gastrointestinal toxicity in Rattus norvegicus Sprague-Dawley (rat) assessed as ulcer index at 83.98 mg/kg, po measured after 8 hr (reference value: 0.2 +/- 0.06); format: organism-based; design: dose 83.98 mg/kg, route oral; settings: in vivo
[2] = tested on: Rattus norvegicus; assay: Anti-inflammatory activity in carrageenan-induced paw edema Rattus norvegicus Sprague-Dawley (rat) model assessed as increase in paw volume at 20.52 mg/kg, po measured after 4 hr; format: functional
[3] = tested on: Rattus norvegicus; assay: Anti-inflammatory activity in carrageenan-induced paw edema Rattus norvegicus Sprague-Dawley (rat) model assessed as increase in paw volume at 20.52 mg/kg, po measured after 2 hr; format: functional
[4] = tested on: Mus musculus; assay: Analgesic activity in Mus musculus LACCA (mouse) assessed as inhibition of acetic acid-induced writhing at 17.49 mg/kg, po measured during 20 min period beginning 3 min after acetic acid challenge
[5] = tested on: Rattus norvegicus; assay: Gastrointestinal toxicity in Rattus norvegicus Sprague-Dawley (rat) assessed as ulcer index at 82 mg/kg, po measured after 8 hr (reference value: 0.2 +/- 0.06); format: organism-based; design: dose 82 mg/kg, route oral; settings: in vivo
[6] = tested on: Rattus norvegicus; assay: Anti-inflammatory activity in carrageenan-induced paw edema Rattus norvegicus Sprague-Dawley (rat) model assessed as increase in paw volume at 23.95 mg/kg, po measured after 4 hr; format: functional
[7] = tested on: Rattus norvegicus; assay: Anti-inflammatory activity in carrageenan-induced paw edema Rattus norvegicus Sprague-Dawley (rat) model assessed as increase in paw volume at 23.95 mg/kg, po measured after 2 hr; format: functional
[8] = tested on: Mus musculus; assay: Analgesic activity in Mus musculus LACCA (mouse) assessed as inhibition of acetic acid-induced writhing at 17.1 mg/kg, po measured during 20 min period beginning 3 min after acetic acid challenge
[9] = tested on: Rattus norvegicus; assay: Gastrointestinal toxicity in Rattus norvegicus Sprague-Dawley (rat) assessed as ulcer index at 48 mg/kg, po measured after 8 hr (reference value: 0.2 +/- 0.06); format: organism-based; design: dose 48 mg/kg, route oral; settings: in vivo
[10] = tested on: Rattus norvegicus; assay: Anti-inflammatory activity in carrageenan-induced paw edema Rattus norvegicus Sprague-Dawley (rat) model assessed as increase in paw volume at 12 mg/kg, po measured after 4 hr; format: functional
[11] = tested on: Rattus norvegicus; assay: Anti-inflammatory activity in carrageenan-induced paw edema Rattus norvegicus Sprague-Dawley (rat) model assessed as increase in paw volume at 12 mg/kg, po measured after 2 hr; format: functional
[12] = tested on: Mus musculus; assay: Analgesic activity in Mus musculus LACCA (mouse) assessed as inhibition of acetic acid-induced writhing at 10 mg/kg, po measured during 20 min period beginning 3 min after acetic acid challenge

## COc1ccc2c(c1)c(CC(=O)Oc1cc(O)c3c(c1)O[C@H](c1ccc(OC)c(O)c1)CC3=O)c(C)n2C(=O)c1ccc(Cl)cc1 [INDOMETHACIN-HESPERTIN]
[1]
  UI: 0.54
[2]
  Activity: 38.22%
[3]
  Activity: 37.78%
[4]
  inhibition in vivo at 17.49 mg/kg: 89.4%

## COc1ccc2c(c1)c(CC(=O)Oc1cc(O)c3c(c1)O[C@H](c1ccc(O)cc1)CC3=O)c(C)n2C(=O)c1ccc(Cl)cc1 [INDOMETHACIN-NARINGENIN]
[5]
  UI: 0.62
[6]
  Activity: 40.46%
[7]
  Activity: 39.13%
[8]
  inhibition in vivo at 17.1 mg/kg: 86.7%

## COc1ccc2c(c1)c(CC(=O)O)c(C)n2C(=O)c1ccc(Cl)cc1 [INDOMETHACIN]
[9]
  UI: 5.54
[10]
  Activity: 57.39%
[11]
  Activity: 48.35%
[12]
  inhibition in vivo at 10 mg/kg: 74.2%
